In patent publication US20230113037A1 (Bayer Aktiengesellschaft, priority 2019, published 2023):
pIC50: −log10 of the molar value. Like-named read-outs stand apart in the source and are kept apart here.

Assays:
AHR [1] = molecular target: T1, AHR (Mus musculus, UniProt P30561); assay: In vitro assay 3: antagonism in mouse cell line (AHR transactivation, firefly luciferase reporter, kynurenic acid prestimulated); assay type: cell-based
T1 sequence (P30561 1-848 P471L/N533S/M589L): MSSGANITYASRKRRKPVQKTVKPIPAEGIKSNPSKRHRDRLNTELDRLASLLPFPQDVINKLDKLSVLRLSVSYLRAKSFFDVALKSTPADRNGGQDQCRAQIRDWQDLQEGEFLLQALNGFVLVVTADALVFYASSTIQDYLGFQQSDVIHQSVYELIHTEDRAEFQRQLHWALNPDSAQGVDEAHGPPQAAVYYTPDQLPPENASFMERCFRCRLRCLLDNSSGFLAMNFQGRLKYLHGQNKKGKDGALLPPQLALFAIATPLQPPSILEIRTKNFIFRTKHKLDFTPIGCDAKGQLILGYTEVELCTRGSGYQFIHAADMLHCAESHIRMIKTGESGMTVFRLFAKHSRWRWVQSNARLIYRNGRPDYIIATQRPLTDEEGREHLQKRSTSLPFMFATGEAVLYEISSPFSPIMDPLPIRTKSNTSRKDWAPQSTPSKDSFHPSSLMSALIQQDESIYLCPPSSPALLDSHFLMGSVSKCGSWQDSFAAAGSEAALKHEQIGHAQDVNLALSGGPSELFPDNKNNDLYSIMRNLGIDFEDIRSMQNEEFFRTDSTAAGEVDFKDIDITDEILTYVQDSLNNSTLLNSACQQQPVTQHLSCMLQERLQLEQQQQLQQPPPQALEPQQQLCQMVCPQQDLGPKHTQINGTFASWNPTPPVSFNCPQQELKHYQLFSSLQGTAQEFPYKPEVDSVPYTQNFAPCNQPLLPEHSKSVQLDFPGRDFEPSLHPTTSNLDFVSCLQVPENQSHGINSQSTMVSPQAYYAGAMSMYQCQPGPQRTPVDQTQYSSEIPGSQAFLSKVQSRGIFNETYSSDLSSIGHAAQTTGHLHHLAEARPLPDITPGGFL
Method in brief: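 Mouse cells stably carrying a DRE-driven, AHR-inducible firefly luciferase reporter were prestimulated with the endogenous agonist kynurenic acid before compound addition. Luciferase activity was measured by luminescence and normalized to positive and negative controls, with cells lacking kynurenic acid serving as full-inhibition control. Repeat tests are reported as mean or median.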

AHR [2] = molecular target: T2, AHR (Homo sapiens, UniProt P35869); assay: In vitro assay 1: antagonism in human cell line (AHR transactivation, firefly luciferase reporter, kynurenic acid prestimulated); assay type: cell-based; conditions: AHR Antagonism Human IC50 [M]
T2 construct: U87 MG glioblastoma cells (ATCC #HTB-14) endogenously expressing AHR; endogenous in cells; host or cells: U87 MG glioblastoma cells (ATCC #HTB-14)
T2 sequence (P35869 11-848): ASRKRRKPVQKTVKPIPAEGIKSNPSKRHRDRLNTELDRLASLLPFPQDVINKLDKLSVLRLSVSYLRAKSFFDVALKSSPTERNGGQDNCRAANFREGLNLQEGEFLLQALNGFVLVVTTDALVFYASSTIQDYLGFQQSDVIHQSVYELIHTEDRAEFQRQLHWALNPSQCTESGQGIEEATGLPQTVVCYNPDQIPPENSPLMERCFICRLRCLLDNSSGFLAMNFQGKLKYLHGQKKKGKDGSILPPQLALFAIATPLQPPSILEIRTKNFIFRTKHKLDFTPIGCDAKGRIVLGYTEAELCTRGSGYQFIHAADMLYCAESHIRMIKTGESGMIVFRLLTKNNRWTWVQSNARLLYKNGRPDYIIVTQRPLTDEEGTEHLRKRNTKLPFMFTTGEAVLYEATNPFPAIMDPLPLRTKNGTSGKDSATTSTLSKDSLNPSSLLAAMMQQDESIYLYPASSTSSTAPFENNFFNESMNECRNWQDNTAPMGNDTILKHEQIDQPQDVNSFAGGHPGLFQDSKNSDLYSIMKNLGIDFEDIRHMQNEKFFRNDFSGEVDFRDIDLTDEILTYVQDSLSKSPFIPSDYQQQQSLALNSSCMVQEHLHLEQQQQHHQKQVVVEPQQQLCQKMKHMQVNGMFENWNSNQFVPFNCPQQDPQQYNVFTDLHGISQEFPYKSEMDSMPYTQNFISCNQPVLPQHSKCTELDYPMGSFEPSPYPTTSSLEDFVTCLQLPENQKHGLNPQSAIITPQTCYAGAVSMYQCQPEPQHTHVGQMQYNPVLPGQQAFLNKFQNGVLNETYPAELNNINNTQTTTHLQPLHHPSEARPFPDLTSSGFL
Method in brief: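 U87 MG + DRE-firefly/constitutive-Renilla stable reporters; kynurenic acid prestim; dual-luc read; Renilla = tox; normalized vs pos/neg controls (pos: 150 μM KYNA + 5 μM staurosporine).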

[3] = mouse Hepa 1c1c7 cells, 200 μM kynurenic acid, 20 hours, read-out: AHR Antagonism Mouse IC50

Compound | pIC50 (AHR [1]; [3]) | IC50 (AHR [2]) [M] | pIC50 (AHR [1]; read-out: AHR Antagonism Mouse IC50, mouse Hepa 1c1c7 cells, 200 μM kynurenic acid, 20 hours)
O=C1NCCCC[C@@H]1Nc1nc2c(Br)cccc2c2nc(-c3ccc(Cl)cc3OC(F)F)nn12 [Example 576, (3S)-3-({7-bromo-2-[4-chloro-2-(difluoromethoxy)phenyl][1,2,4]triazolo[1,5-c]quinazolin-5-yl}amino)azepan-2-one] | 8.53 | 1.77e-08 | –
CC[C@@H](Nc1nc2c(Br)cccc2c2nc(-c3ccc(Cl)cc3OC(F)F)nn12)C(N)=O [Example 577, (2R)-2-({7-bromo-2-[4-chloro-2-(difluoromethoxy)phenyl][1,2,4]triazolo[1,5-c]quinazolin-5-yl}amino)butanamide] | – | 6.6e-10 | 9.55
CC(C)[C@@H](Nc1nc2c(Br)cccc2c2nc(-c3cnn(C)c3)nn12)C(N)=O [Example 578, N^2-[7-bromo-2-(1-methyl-1H-pyrazol-4-yl)[1,2,4]triazolo[1,5-c]quinazolin-5-yl]-D-valinamide] | 8.54 | 1.25e-08 | –
O=C1NCCCC[C@H]1Nc1nc2c(Br)cccc2c2nc(-c3cn[nH]c3)nn12 [Example 579, (3R)-3-{[7-bromo-2-(1H-pyrazol-4-yl)[1,2,4]triazolo[1,5-c]quinazolin-5-yl]amino}azepan-2-one] | 7.17 | 1.13e-08 | –
Cn1cc(-c2nc3c4cccc(Br)c4nc(N[C@H]4CCCCNC4=O)n3n2)cn1 [Example 580, (3S)-3-{[7-bromo-2-(1H-methyl-1H-pyrazol-4-yl)[1,2,4]triazolo[1,5-c]quinazolin-5-yl]amino}azepan-2-one] | 7.21 | 5.4e-08 | –
Cn1cc(-c2nc3c4cccc(C(F)(F)F)c4nc(N[C@@H]4CCCCNC4=O)n3n2)cn1 [Example 583, (3R)-3-{[2-(1-methyl-1H-pyrazol-4-yl)-7-(trifluoromethyl)[1,2,4]triazolo[1,5-c]quinazolin-5-yl]amino}azepan-2-one] | 8.51 | 9.48e-10 | –
Cn1cc(-c2nc3c4cccc(C(F)(F)F)c4nc(N[C@H]4CCCCNC4=O)n3n2)cn1 [Example 584, (3S)-3-{[2-(1-methyl-1H-pyrazol-4-yl)-7-(trifluoromethyl)[1,2,4]triazolo[1,5-c]quinazolin-5-yl]amino}azepan-2-one] | 6.82 | 4.39e-08 | –
Cn1cc(-c2nc3c4cccc(C(F)(F)F)c4nc(N[C@@H]4CCCNC4=O)n3n2)cn1 [Example 585, (3R)-3-{[2-(1-methyl-1H-pyrazol-4-yl)-7-(trifluoromethyl)[1,2,4]triazolo[1,5-c]quinazolin-5-yl]amino}piperidin-2-one] | 6.08 | 6.91e-08 | –
COc1ccc(-c2nc3c4cccc(C(C)C)c4nc(N[C@@H]4CCCCNC4=O)n3n2)cc1 [Example 587, (3R)-3-{[2-(4-methoxyphenyl)-7-(propan-2-yl)[1,2,4]triazolo[1,5-c]quinazolin-5-yl]amino}azepan-2-one] | 7.69 | 7.7e-09 | –
CC(C)c1cccc2c1nc(N[C@@H]1CCCCNC1=O)n1nc(-c3cnn(C)c3)nc21 [Example 588, (3R)-3-{[2-(1-methyl-1H-pyrazol-4-yl)-7-(propan-2-yl)[1,2,4]triazolo[1,5-c]quinazolin-5-yl]amino}azepan-2-one] | 5.97 | 1.84e-08 | –
O=C1NCCCC[C@H]1Nc1nc2c(Br)cc(Br)cc2c2nc(-c3cccc(F)c3)nn12 [Example 592, (3R)-3-{[7,9-dibromo-2-(3-fluorophenyl)[1,2,4]triazolo[1,5-c]quinazolin-5-yl]amino}azepan-2-one] | < 4.70 | 5.21e-07 | –
Cn1cc(-c2nc3c4cc(Br)cc(Br)c4nc(N[C@@H]4CCCCNC4=O)n3n2)cn1 [Example 594, (3R)-3-{[7,9-dibromo-2-(1-methyl-1H-pyrazol-4-yl)[1,2,4]triazolo[1,5-c]quinazolin-5-yl]amino}azepan-2-one] | < 4.70 | 5.01e-07 | –
O=C1NCCCC[C@H]1Nc1nc2ccccc2c2nc(-c3cnn(C4COC4)c3)nn12 [Example 595, (3R)-3-({2-[1-(oxetan-3-yl)-1H-pyrazol-4-yl][1,2,4]triazolo[1,5-c]quinazolin-5-yl}amino)azepan-2-one] | 7.47 | 5.18e-08 | –
CN1CCC(n2cc(-c3nc4c5ccccc5nc(N[C@@H]5CCCCNC5=O)n4n3)cn2)CC1 [Example 596, (3R)-3-({2-[1-(1-methylpiperidin-4-yl)-1H-pyrazol-4-yl][1,2,4]triazolo[1,5-c]quinazolin-5-yl}amino)azepan-2-one] | 5.50 | 4.08e-06 | –

The next lines start with results.

pIC50 (AHR [1]; [3]) | IC50 (AHR [2]) [M] | Compound | pIC50 (AHR [1]; read-out: AHR Antagonism Mouse IC50, mouse Hepa 1c1c7 cells, 200 μM kynurenic acid, 20 hours)
8.12 | 1.16e-08 | O=C1NCCCC[C@H]1Nc1nc2ccccc2c2nc(-c3cnn(CC4CCC4)c3)nn12 [Example 597, (3R)-3-({2-[1-(cyclobutylmethyl)-1H-pyrazol-4-yl][1,2,4]triazolo[1,5-c]quinazolin-5-yl}amino)azepan-2-one] | –
6.77 | 2.8e-07 | O=C1NCCCC[C@H]1Nc1nc2ccccc2c2nc(-c3cnn(CCCO)c3)nn12 [Example 598, (3R)-3-({2-[1-(3-hydroxypropyl)-1H-pyrazol-4-yl][1,2,4]triazolo[1,5-c]quinazolin-5-yl}amino)azepan-2-one] | –
5.67 | 5.81e-07 | CN(C)CCn1cc(-c2nc3c4ccccc4nc(N[C@@H]4CCCCNC4=O)n3n2)cn1 [Example 599, (3R)-3-[(2-{1-[2-(dimethylamino)ethyl]-1H-pyrazol-4-yl}[1,2,4]triazolo[1,5-c]quinazolin-5-yl)amino]azepan-2-one] | –
7.50 | 4.48e-08 | O=C1NCCCC[C@H]1Nc1nc2ccccc2c2nc(-c3cnn(C4CCOCC4)c3)nn12 [Example 600, (3R)-3-({2-[1-(oxan-4-yl)-1H-pyrazol-4-yI][1,2,4]triazolo[1,5-c]quinazolin-5-yl}amino)azepan-2-one] | –
6.80 | 2.96e-07 | O=C1NCCCC[C@H]1Nc1nc2ccccc2c2nc(-c3cnn(CCO)c3)nn12 [Example 601, (3R)-3-({2-[1-(2-hydroxyethyl)-1H-pyrazol-4-yl][1,2,4]triazolo[1,5-c]quinazolin-5-yl}amino)azepan-2-one] | –
8.57 | 6.81e-09 | O=C1NCCCC[C@H]1Nc1nc2ccccc2c2nc(-c3cnn(CC4CC4)c3)nn12 [Example 602, (3R)-3-({2-[1-(cyclopropylmethyl)-1H-pyrazol-4-yl][1,2,4]triazolo[1,5-c]quinazolin-5-yl}amino)azepan-2-one] | –
8.47 | 4.08e-09 | O=C1NCCCC[C@H]1Nc1nc2ccccc2c2nc(-c3cnn(C4CCC4)c3)nn12 [Example 603, (3R)-3-{[2-(1-cyclobutyl-1H-pyrazol-4-yl)[1,2,4]triazolo[1,5-c]quinazolin-5-yl]amino}azepan-2-one] | –
6.46 | 1.33e-07 | O=C1NCCCC[C@H]1Nc1nc2ccccc2c2nc(-c3c[nH]nc3C(F)(F)F)nn12 [Example 604, (3R)-3-({2-[3-(trifluoromethyl)-1H-pyrazol-4-yl][1,2,4]triazolo[1,5-c]quinazolin-5-yl}amino)azepan-2-one] | –
